According to US8283376B2, “Use of substituted 2-aminotetralins for preventive treatment of parkinson's disease” (UCB Pharma GmbH, priority 2003, dated 2012):

How the values were obtained:
[1] = system: dopamine transporters in the striatum; experiment: Sub-acute MPTP model, dopamine transporter density in the striatum ([125I]PE2I binding); assay type: in vivo, mice
Procedure: Groups 1 to 7 were treated as follows: Group 1: untreated control group; Group 2: control group treated with a vehicle solution for rotigotine and MPTP; Group 3: MPTP treatment; Group 4: MPTP treatment plus rotigotine 0.3 mg/kg; Group 5: MPTP treatment plus rotigotine 1.0 mg/kg; Group 6: MPTP treatment plus rotigotine 3.0 mg/kg; Group 7: treatment solely with rotigotine (3.0 mg/kg).
(§1) The 2-aminotetralins according to the invention, in particular rotigotine, thereby display a neuroprotective effect in a mouse model of Parkinson's disease: Following the acute administration of MPTP, which causes Parkinson's syndrome in both humans and monkeys, the number of the degenerating neurones in the acute phase was measured on the one hand (Table 1) and the functional integrity of the striatum in the sub-acute phase was ascertained on the other by determining the density of the dopamine transporter in the terminal nerve endings (FIGS. 1 and 2).
For the purpose of intoxication, 80 mg/kg of the neurotoxin 1-methyl-4-phenyl-1,2,3,6-tetrahydro-pyridine (MPTP) were administered to mice (in doses of 20 mg/kg at two-hour intervals, groups 3 to 6 in FIGS. 1 and 2), which led to the degeneration of approximately 50 to 60% of the neurones of the substantia nigra (maximum degeneration in group 3 in FIGS. 1 and 2). […]

[2] = system: patients with Parkinson's disease; details: cited from earlier work
[3] = system: monkeys (macaques) injected with MPTP; experiment: Progressive MPTP primate model of morbus Parkinson (pilot study); assay type: in vivo
Procedure: In the model used, which reflects the progressive course of morbus Parkinson in primates, monkeys (macaques) were injected with subliminal toxic doses of MPTP for several days. Parkinson's symptoms developed in the model over a period of approximately 2 weeks. As soon as a certain level of damage had been reached, rotigotine was injected daily in a formulation that produced a continuous plasma level over 24 hours. The MPTP injections were stopped as soon as the motor activity had been reduced to a certain extent (approximately 5 days later). The behavior of the animals was assessed on a daily basis. […] A group of animals was killed at the end of both the rotigotine administration and the clearance phase, and the condition of the basal ganglia was histologically and biochemically examined.

[4] = system: neurones of the substantia nigra; experiment: Acute MPTP model (including apoptosis), FluoroJade staining of degenerating neurones; assay type: in vivo; details: mouse; for No. of degenerating neurones: FluoroJade staining
Procedure: as §1
For the purpose of intoxication, 80 mg/kg of the neurotoxin 1-methyl-4-phenyl-1,2,3,6-tetrahydro-pyridine (MPTP) were administered to mice (in doses of 20 mg/kg at two-hour intervals), which led to the degeneration of approximately 50 to 60% of the neurones of the substantia nigra. Approximately 16 hours beforehand, rotigotine was administered in doses of 0.3, 1 or 3 mg/kg respectively, as the so-called “slow-release formulation”. Diffusion and absorption latencies led to rotigotine then being optimally available when MPTP was administered. The animals were killed after 24 hours and their brains fixed. The brain sections were stained with FluoroJade to identify degenerating cells. The immunohistochemical marking of tyrosine-hydroxylase helped to identify dopaminergic neurones.

Q: With `CCCN(CCc1cccs1)C1CCc2c(O)cccc2C1` (single isomer, unassigned; (-)) [rotigotine, (−)-5,6,7,8-tetrahydro-6-[propyl[2-(2-thienyl)ethyl]amino]-1-naphthol] as the compound, how does the “Survival of the neurones and their nerve endings (dopamine transporter density in the striatum)” value ([1]; mice, MPTP 80 mg/kg, rotigotine 0.3, 1 or 3 mg/kg daily for 7 days, slow-release formulation) read?
A: improved the survival of the neurones and their nerve endings depending on the dosage

Q: What about the “Dopaminergic innervation of the striatum (density of the dopamine transporter)” value ([1]; mouse, sub-acute phase after MPTP) of the same compound?
A: almost completely maintained or restored

Q: And the Dyskinesias ([2]; patients with pronounced dyskinesias, Metman et al. (2001))?
A: improved

Q: And the “UPDRS (Unified Parkinson's Disease Rating Scale) score” value ([2]; transdermal administration, patients with Parkinson's disease, WO 02/089777)?
A: improvement

Q: And the “Density of the nerve endings in the striatum” value ([3]; compared to untreated animals)?
A: significantly increased

Q: And the “Motor activity of the animals” value ([3]; daily rotigotine injections, during treatment and in the following clearance phase)?
A: clearly improved

Q: What about the “Content of pre-pro-enkephalin (basal ganglia)” value ([3]; following treatment and the clearance phase) of the same compound?
A: showed a tendency towards normalisation

Q: And the “No. of degenerating neurones” value ([4]; MPTP intoxication + rotigotine 0.3 mg/kg)?
A: 66.7

Q: What about the “No. of degenerating neurones” value ([4]; MPTP intoxication + rotigotine 1.0 mg/kg) of the same compound?
A: 76.8

Q: What about the “No. of degenerating neurones” value ([4]; MPTP intoxication + rotigotine 3.0 mg/kg) of the same compound?
A: 34.9

Q: And the “No. of degenerating neurones” value ([4]; MPTP-vehicle + rotigotine 3.0 mg/kg (no MPTP))?
A: 3.8

Q: What about the “Staining of tyrosine hydroxylase (dopaminergic neurones)” value ([4]; acute MPTP model, 24 hours, treated vs untreated animals) of the same compound?
A: did not display any differences between the treated and untreated animals

Q: What about the “Reduction of the number of degenerating neurones following application of rotigotine” value ([4]; acute MPTP model, versus MPTP intoxication) of the same compound?
A: approximately 50%

Q: And the “Number of degenerating neurones in the mesencephalon” value ([4]; acute phase after MPTP)?
A: reduced
